The source of these data is patent publication US20220227773A1, “FUSED RING COMPOUND, PREPARATION METHOD THEREFOR AND USE THEREOF” (SHANGHAI INSTITUTE OF MATERIA MEDICA, CHINESE ACADEMY OF …, priority 2019, published 2022).

Assay [1] addresses T1, hSERT (5-HTT) in HEK293-hSERT cells (Homo sapiens, UniProt P31645).
T1 construct: expressed in transfected cells; host or cells: HEK293
Description: 5-HTT reuptake activity assay (fluorescence neurotransmitter transporter uptake kit). In kind it is cell-based. To be noted: serotonin reuptake inhibition.

In assay [2] the target is T2, human recombinant 5-HT3 receptor (Homo sapiens, UniProt P46098).
T2 construct: expressed in transfected cells; host or cells: HEK293 (membrane preparation)
T2 sequence (P46098 24-478): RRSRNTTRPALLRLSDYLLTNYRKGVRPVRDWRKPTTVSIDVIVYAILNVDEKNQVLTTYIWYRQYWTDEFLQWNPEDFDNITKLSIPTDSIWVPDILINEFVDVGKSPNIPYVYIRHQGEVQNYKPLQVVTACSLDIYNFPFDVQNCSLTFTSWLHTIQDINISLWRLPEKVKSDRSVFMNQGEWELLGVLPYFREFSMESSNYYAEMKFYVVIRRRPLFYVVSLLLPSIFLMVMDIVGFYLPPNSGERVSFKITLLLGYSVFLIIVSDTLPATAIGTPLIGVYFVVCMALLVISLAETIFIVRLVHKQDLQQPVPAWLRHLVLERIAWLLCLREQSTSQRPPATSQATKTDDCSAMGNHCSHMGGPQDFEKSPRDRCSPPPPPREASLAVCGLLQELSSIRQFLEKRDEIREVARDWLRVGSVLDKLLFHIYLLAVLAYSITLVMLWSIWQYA
In words: 5-HT3 receptor affinity assay (3H-BRL 43694 radioligand binding). As to conditions: read-out: inhibition (%) at 1 μM.

The test system of a further assay is mice. Description: Forced swimming test (FST) in mice. The format is in vivo. To be noted: Mus musculus. How it is done: 3. In Vivo Drug Efficacy Test (Mouse Forced Swimming Model)
Experimental animals: C57BL/6 mice (Shanghai Xipuer-Bikai Experimental Animal Co., Ltd.), male, 6 weeks old, weighing 15-20 g. ICR mice (Shanghai Xipuer-Bikai Experimental Animal Co., Ltd.), male, 6 weeks old, weighing 20-25 g. All the ordered mice were fed in a standard environment for 2-3 weeks before test.
Forced Swimming Test (FST): in the forced swimming apparatus, the water level is 45 cm, and the water temperature is 25° C. Before the experiment, the mice were placed in the experimental room for 1 h for adapting to the environment. At the beginning of the experiment, the mice were placed in the apparatus for 6min, and the whole process was recorded with a camera. When analyzing the data, only the immobility time of the mice in the last 4 min was counted, and the result was expressed by mean±SD.
The results were analyzed by one-way analysis of variance. […] FST: Forced swimming test; TST: Tail suspension test.

Where [3] appears, read: ip, read-out: Effective dose (mg/kg).
Where [4] appears, read: po, FST, dose significantly reducing immobility time of mice, read-out: Effective dose.

Where a name gives a salt, the structure may show the parent alone. Read-outs that look alike come from different tables or passages of the source.

T1 sequence (P31645 whole entry): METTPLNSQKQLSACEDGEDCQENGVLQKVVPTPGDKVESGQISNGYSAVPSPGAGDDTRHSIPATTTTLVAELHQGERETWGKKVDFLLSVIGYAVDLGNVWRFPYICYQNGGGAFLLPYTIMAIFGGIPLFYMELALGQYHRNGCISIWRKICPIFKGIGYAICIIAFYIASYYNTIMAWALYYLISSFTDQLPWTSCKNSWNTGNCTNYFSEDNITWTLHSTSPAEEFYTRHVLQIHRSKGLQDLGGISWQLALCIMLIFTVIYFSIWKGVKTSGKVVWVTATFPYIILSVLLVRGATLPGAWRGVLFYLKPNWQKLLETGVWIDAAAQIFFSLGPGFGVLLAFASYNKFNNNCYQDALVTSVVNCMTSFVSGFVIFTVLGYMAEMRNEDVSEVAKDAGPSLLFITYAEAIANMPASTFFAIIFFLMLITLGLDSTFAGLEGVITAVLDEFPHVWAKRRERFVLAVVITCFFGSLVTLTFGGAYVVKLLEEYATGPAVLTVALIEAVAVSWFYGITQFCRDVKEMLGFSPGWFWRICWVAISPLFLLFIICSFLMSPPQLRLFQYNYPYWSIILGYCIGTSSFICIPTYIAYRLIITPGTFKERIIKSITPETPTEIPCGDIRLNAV

`CN1CC2C=C(c3cc4ccccc4o3)CC2C1` (stereo not shown) [Example 59, 5-(Benzofuran-2-yl)-2-methyl-1,2,3,3a,4,6a-hexahydrocyclopenta[c]pyrrole hydrochloride]: the IC50 (usually the concentration that gives 50% inhibition) in assay [1] is less than 50 nM.

In the case of `Cc1cccc(N2CC3CNCC3C2)c1C` (stereo not shown) [Example 66, 2-(2,3-dimethylphenyl)octahydropyrrolo[3,4-c]pyrrole maleate], the half-maximal inhibitory concentration (IC50) in assay [1] was less than 50 nM.

Regarding `Clc1ccc(N2CC3CCNCCC3C2)cc1Cl` (stereo not shown) [Example 42, 2-(3,4-dichlorophenyl)decahydropyrrolo[3,4-d]azepine maleate], the inhibition (in general, the drop in the measured response relative to a control, in per cent) at 1 µM in assay [2] was 103%. This molecule yielded an IC50 in assay [1] of less than 10 nM. With `CN1CC2CN(c3c(F)cc4ccccc4c3F)CC2C1` (stereo not shown) [Example 75, 2-(1,3-difluoronaphthalen-2-yl)-5-methyloctahydropyrrolo[3,4-c]pyrrole dihydrochloride], in assay [1], the concentration for half-maximal inhibition (IC50) was less than 100 nM. `O=C(O)/C=C\C(=O)O.c1cc2cc(N3CC4CNCC4C3)ccc2o1` (stereo not shown) [Example 21, 2-(Benzofuran-5-yl)octahydropyrrolo[3,4-c]pyrrole maleate]: in assay [1], the half-maximal inhibitory concentration (IC50) is less than 50 nM. Moreover, the minimal effective dose with mice (setting [3]) was 3 mg/kg. Molecule `CN1CC2CCN(c3ccc4sccc4c3)C2C1` (stereo not shown) [Example 65, 1-(Benzothiophen-5-yl)-5-methyloctahydropyrrolo[3,4-b]pyrrole oxalate] had an IC50 in assay [1] of less than 50 nM. The same measure, in the same setting: with `C1=C(c2cc3ccccc3o2)CC2CNCC12` (stereo not shown) [Example 52, 5-(Benzofuran-2-yl)-1,2,3,3a,4,6a-hexahydrocyclopenta[c]pyrrole hydrochloride] the figure was less than 200 nM; with `c1cc2cc(N3CCC4CNCC43)ccc2s1` (stereo not shown) [Example 64, 1-(Benzothiophen-5-yl)octahydropyrrolo[3,4-b]pyrrole maleate], less than 50 nM; with `Clc1ccc(N2CCC3CNCC3CC2)c(Cl)c1` (stereo not shown) [Example 90, 6-(2,4-dichlorophenyl)decahydropyrrolo[3,4-d]azepine hydrochloride], less than 50 nM. In turn, `C1=C(c2cccc3ccsc23)CC2CNCC12` (stereo not shown) [Example 48, 5-(Benzothiophen-7-yl)-1,2,3,3a,4,6a-hexahydrocyclopenta[c]pyrrole hydrochloride] came in with an IC50 in assay [1] of less than 50 nM. The same measure, in the same setting: with `Cc1cccc(N2CC3CN(C)CC3C2)c1C` (stereo not shown) [Example 67, 2-(2,3-dimethylphenyl)-5-methyloctahydropyrrolo[3,4-c]pyrrole oxalate] the figure was less than 200 nM.

Consider `CN1CC2CN(c3cccc4ccccc34)CC2C1` (stereo not shown) [Example 26, 2-methyl-5-(naphthalen-1-yl)octahydropyrrolo[3,4-c]pyrrole oxalate], for which, in assay [2] (1 μM compound, 0.5 nM 3H-BRL 43694, HEK293 membranes), the inhibition at 1 µM was found to be 76%. Moreover, the half-maximal inhibitory concentration (IC50) in assay [1] is less than 200 nM. Turning to `c1ccc2cc(N3CC4CCNCCC4C3)ccc2c1` (stereo not shown) [Example 6, 2-(naphthalen-2-yl)decahydropyrrolo[3,4-d]azepine maleate], the 50% inhibitory concentration (IC50) in assay [1] is less than 200 nM.

With `Clc1ccc(C2=CC3CNCC3C2)cc1Cl` (stereo not shown) [Example 9, 5-(3,4-chlorophenyl)-1,2,3,3a,4,6a-hexahydrocyclopenta[c]pyrrole hydrochloride], the concentration for half-maximal inhibition (IC50) in assay [1] is less than 200 nM. On to `CN1CC2CN(c3ccc4cc(F)ccc4c3)CC2C1.O=C(O)/C=C\C(=O)O` (stereo not shown) [Example 30, 2-(6-fluoronaphthalen-2-yl)-5-methyloctahydropyrrolo[3,4-c]pyrrole maleate], for which, in assay [1], the half-inhibitory concentration (IC50) was less than 10 nM. Moreover, the minimal effective dose with mice (setting [4]) is 20 mg/kg.

Consider `c1ccc2c(N3CC4CNCC4C3)csc2c1` (stereo not shown) [Example 23, 2-(Benzo[b]thiophen-3-yl)octahydropyrrolo[3,4-c]pyrrole maleate], for which the IC50 in assay [1] is less than 200 nM.

With `CN1CC2CC(c3cc4ccccc4s3)CC2C1` (stereo not shown) [Example 62, 5-(benzothiophen-2-yl)-2-methyl-octahydrocyclopenta[c]pyrrole hydrochloride], the concentration for half-maximal inhibition (IC50) in assay [1] is less than 50 nM. Same read-out and setting: the figure for `CN1CC2CN(c3cccc4c3CCC(=O)N4)CC2C1` (stereo not shown) [Example 93, 5-(5-methylhexahydropyrrolo[3,4-c]pyrrol-2(1H)-yl)-3,4-dihydroquinolin-2(1H)-one dihydrochloride] is less than 200 nM. As to `Clc1cccc(N2CC3CNCC3C2)c1Cl` (stereo not shown) [Example 27, 2-(2,3-dichlorophenyl)octahydropyrrolo[3,4-c]pyrrole maleate], the inhibition at 1 µM in assay [2] is 104%. The molecule also had a half-maximal inhibitory concentration (IC50) in assay [1] of less than 50 nM. As to `O=C(O)/C=C\C(=O)O.c1cc2ccc(N3CC4CNCC4C3)cc2s1` (stereo not shown) [Example 19, 2-(Benzo[b]thiophen-6-yl)octahydropyrrolo[3,4-c]pyrrole maleate], in assay [1], the half-maximal inhibitory concentration (IC50) is less than 10 nM. For the same molecule, in the assay on mice (setting [3]), the minimal effective dose came out at 10 mg/kg. As for `CNCC[C@H](Oc1cccc2ccccc12)c1cccs1` [Duloxetine, reference compound], the minimal effective dose in the assay on mice (po, read-out: Effective dose (mg/kg)) was determined as 20 mg/kg.

With `Fc1cc(N2CC3CNCC3C2)cc2sccc12` (stereo not shown) [Example 68, 2-(4-fluorobenzo[b]thiophen-6-yl)octahydropyrrolo[3,4-c]pyrrole dihydrochloride], in assay [1], the IC50 was less than 200 nM. Consider `CN1[C@@H]2CC[C@H]1C[C@@H](OC(=O)c1cc(Cl)cc(Cl)c1)C2` [MDL72222, reference compound], for which the inhibition at 1 µM in assay [2] worked out at 93%. `CN1CC2C=C(c3cc4ccccc4s3)CC2C1` (stereo not shown) [Example 61, 5-(Benzothiophen-2-yl)-2-methyl-1,2,3,3a,4,6a-hexahydrocyclopenta[c]pyrrole hydrochloride]: the half-inhibitory concentration (IC50) in assay [1] was less than 50 nM.

`C1=C(c2cc3ccccc3s2)CC2CNCC12` (stereo not shown) [Example 51, 5-(Benzothiophen-2-yl)-1,2,3,3a,4,6a-hexahydrocyclopenta[c]pyrrole hydrochloride]: in assay [1], the IC50 is less than 50 nM.

`c1ccc2c(C3CC4CNCC4C3)cccc2c1` (stereo not shown) [Example 8, 5-(naphthalen-1-yl)octahydrocyclopenta[c]pyrrole hydrochloride] yielded an IC50 in assay [1] of less than 200 nM. Turning to `CN1CC2CN(c3cc(F)cc4sccc34)CC2C1` (stereo not shown) [Example 70, 2-(6-fluorobenzothiophen-4-yl)-5-methyloctahydropyrrolo[3,4-c]pyrrole oxalate], the IC50 in assay [1] is less than 50 nM. On the same count and under the same terms, the figure for `c1cc(N2CC3CCNCCC3C2)c2sccc2c1` (stereo not shown) [Example 43, 2-(Benzo[b]thiophen-7-yl)decahydropyrrolo[3,4-d]azepine maleate] is less than 50 nM; for `CN1CC2CN(c3cc4ccccc4cc3F)CC2C1` (stereo not shown) [Example 76, 2-(3-fluoronaphthalen-2-yl)-5-methyloctahydropyrrolo [3,4-c]pyrrole dihydrochloride] it is less than 50 nM. With `CN1CC2C=C(c3cccc4ccccc34)CC2C1` (stereo not shown) [Example 71, 2-methyl-5-(naphthalen-1-yl)-1,2,3,3a,4,6a-hexahydrocyclopenta[c]pyrrole], in assay [1], the IC50 is less than 50 nM. As for `CN(C)CCCC1(c2ccc(F)cc2)OCc2cc(C#N)ccc21` (stereo not shown) [Citalopram, reference compound], the minimal effective dose in the assay on mice (setting [4]) stood at 20 mg/kg. Turning to `C1=C(c2cccc3ccccc23)CC2CNCC12` (stereo not shown) [Example 56, 5-(naphthalen-1-yl)-1,2,3,3a,4,6a-hexahydrocyclopenta[c]pyrrole dihydrochloride], in assay [1], the IC50 was less than 50 nM.

Consider `CN1CC2C=C(c3ccc4ccccc4c3)CC2C1` (stereo not shown) [Example 57, 2-methyl-5-(naphthalen-2-yl)-1,2,3,3a,4,6a-hexahydrocyclopenta[c]pyrrole], for which the IC50 in assay [1] is less than 50 nM. On the same count and under the same terms, with `C1=C(c2ccc3ccccc3c2)CC2CNCC12` (stereo not shown) [Example 54, 5-(naphthalen-2-yl)-1,2,3,3a,4,6a-hexahydrocyclopenta[c]pyrrole hydrochloride] the figure was less than 50 nM.
